# Assay results as given in ChEMBL document CHEMBL3885881, “DrugMatrix”.
# Organism: Rattus norvegicus
# Assay: DrugMatrix - Regimen: Daily Repeat
# Assay type: toxicity, organism-based, Sprague-Dawley
# Parameters: regimen Daily Repeat, gender Male, age 6-8 weeks
# Details: in vivo, sc, route subcutaneous, […]; for POTASSIUM / SODIUM / TOTAL BILIRUBIN / TOTAL PROTEIN / URIC ACID / ALANINE AMINOTRANSFERASE / ALBUMIN / ALKALINE PHOSPHATASE / ASPARTATE AMINOTRANSFERASE / BLOOD UREA NITROGEN / CARBON DIOXIDE / CHLORIDE / CHOLESTEROL / CREATINE PHOSPHOKINASE / CREATININE / GLUCOSE / LACTATE DEHYDROGENASE / LIPASE / PHOSPHORUS: tissue Plasma; for ABSOLUTE BASOPHIL / ABSOLUTE EOSINOPHIL / ABSOLUTE LYMPHOCYTE / ABSOLUTE MONOCYTE / ABSOLUTE SEGMENTED NEUTROPHIL / BASOPHIL / EOSINOPHIL / ERYTHROCYTE COUNT / HEMATOCRIT / HEMOGLOBIN / LEUKOCYTE COUNT / LYMPHOCYTE / MEAN CORPUSCULAR HEMOGLOBIN / MEAN CORPUSCULAR HEMOGLOBIN CONCENTRATION / MEAN CORPUSCULAR VOLUME / MONOCYTE / NEUTROPHIL / NUCLEATED RED BLOOD CELLS / PLATELET COUNT: tissue Blood
# [1] = 0.1 mg/kg, 120 h, dose level Low, time 5 day
# [2] = 2 mg/kg, 72 h, dose level M2, time 3 day
# [3] = 2 mg/kg, 120 h, dose level M2, time 5 day
smiles,measurement,setting,value
C[C@]12CC[C@@H]3c4ccc(OC(=O)c5ccccc5)cc4CC[C@H]3[C@@H]1CC[C@@H]2O [ESTRADIOL BENZOATE],POTASSIUM,[1],6.15 MEQ/L
same,SODIUM,[1],142.73 MEQ/L
same,TOTAL BILIRUBIN,[1],0.1 mg/dL
same,TOTAL PROTEIN,[1],7.67 G/DL
same,URIC ACID,[1],2.73 mg/dL
same,ABSOLUTE BASOPHIL,[2],0 CELLS/uL
same,ABSOLUTE EOSINOPHIL,[2],32 CELLS/uL
same,ABSOLUTE LYMPHOCYTE,[2],8090.33 CELLS/uL
same,ABSOLUTE MONOCYTE,[2],25.67 CELLS/uL
same,ABSOLUTE SEGMENTED NEUTROPHIL,[2],718.67 CELLS/uL
same,BASOPHIL,[2],0%
same,EOSINOPHIL,[2],0.33%
same,ERYTHROCYTE COUNT,[2],5.61 x10E6/uL
same,HEMATOCRIT,[2],37.6%
same,HEMOGLOBIN,[2],14.37 G/DL
same,LEUKOCYTE COUNT,[2],8.87 x10E3/uL
same,LYMPHOCYTE,[2],91.33%
same,MEAN CORPUSCULAR HEMOGLOBIN,[2],25.63 pg
same,MEAN CORPUSCULAR HEMOGLOBIN CONCENTRATION,[2],38.23 G/DL
same,MEAN CORPUSCULAR VOLUME,[2],67.03 fL
same,MONOCYTE,[2],0.33%
same,NEUTROPHIL,[2],8%
same,NUCLEATED RED BLOOD CELLS,[2],0.33 /100WBC
same,PLATELET COUNT,[2],1211.67 x10E3/uL
same,ALANINE AMINOTRANSFERASE,[2],46.67 u/L
same,ALBUMIN,[2],3.97 G/DL
same,ALKALINE PHOSPHATASE,[2],647.67 u/L
same,ASPARTATE AMINOTRANSFERASE,[2],67.67 u/L
same,BLOOD UREA NITROGEN,[2],9.67 mg/dL
same,CARBON DIOXIDE,[2],23.33 mmol/L
same,CHLORIDE,[2],96.33 MEQ/L
same,CHOLESTEROL,[2],36.33 mg/dL
same,CREATINE PHOSPHOKINASE,[2],231.67 u/L
same,CREATININE,[2],0.28 mg/dL
same,GLUCOSE,[2],138.67 mg/dL
same,LACTATE DEHYDROGENASE,[2],103 u/L
same,LIPASE,[2],9.33 u/L
same,PHOSPHORUS,[2],10.07 mg/dL
same,POTASSIUM,[2],5.43 MEQ/L
same,SODIUM,[2],138.43 MEQ/L
same,TOTAL BILIRUBIN,[2],0.1 mg/dL
same,TOTAL PROTEIN,[2],5.77 G/DL
same,URIC ACID,[2],0.63 mg/dL
same,ABSOLUTE BASOPHIL,[3],0 CELLS/uL
same,ABSOLUTE EOSINOPHIL,[3],34.67 CELLS/uL
same,ABSOLUTE LYMPHOCYTE,[3],10740.67 CELLS/uL
same,ABSOLUTE MONOCYTE,[3],0 CELLS/uL
same,ABSOLUTE SEGMENTED NEUTROPHIL,[3],658 CELLS/uL
same,BASOPHIL,[3],0%
same,EOSINOPHIL,[3],0.33%
same,ERYTHROCYTE COUNT,[3],6.23 x10E6/uL
same,HEMATOCRIT,[3],39.53%
same,HEMOGLOBIN,[3],15 G/DL
same,LEUKOCYTE COUNT,[3],11.43 x10E3/uL
same,LYMPHOCYTE,[3],93.67%
same,MEAN CORPUSCULAR HEMOGLOBIN,[3],24.17 pg
same,MEAN CORPUSCULAR HEMOGLOBIN CONCENTRATION,[3],38 G/DL
same,MEAN CORPUSCULAR VOLUME,[3],63.5 fL
same,MONOCYTE,[3],0%
same,NEUTROPHIL,[3],6%
same,NUCLEATED RED BLOOD CELLS,[3],0 /100WBC
same,PLATELET COUNT,[3],1334 x10E3/uL
same,ALANINE AMINOTRANSFERASE,[3],47.33 u/L
same,ALBUMIN,[3],3.9 G/DL
same,ALKALINE PHOSPHATASE,[3],436.33 u/L
same,ASPARTATE AMINOTRANSFERASE,[3],73.67 u/L
same,BLOOD UREA NITROGEN,[3],13.67 mg/dL
same,CARBON DIOXIDE,[3],24.33 mmol/L
same,CHLORIDE,[3],103.67 MEQ/L
same,CHOLESTEROL,[3],34 mg/dL
same,CREATINE PHOSPHOKINASE,[3],348.33 u/L
same,CREATININE,[3],0.2 mg/dL
same,GLUCOSE,[3],160.67 mg/dL
same,LACTATE DEHYDROGENASE,[3],186.67 u/L
same,LIPASE,[3],8.67 u/L
same,PHOSPHORUS,[3],11.73 mg/dL
same,POTASSIUM,[3],5.75 MEQ/L
